Experimental data published in patent US5776461A, “Cosmetic compositions containing phytovitamin D” (Chesebrough-Pond's USA Co., Division of Conopco, Inc., priority 1996, dated 1998).
“Also recorded” adds a separate entry of the source.

Experiments:
HL-60 cells = experiment: HL-60 cell differentiation assay (nonspecific esterase expression); assay type: cell-based; conditions: for HL-60 differentiation activity (in words): pure vitamin D compounds; for % differentiation: 48 hrs
From the text: This test can be utilized to assess the vitamin D content of plant extracts after converting the glycosides and other hydroxylated forms of vitamin D to 1,25-(OH)2 D. One can achieve this by following the procedure: [drawing 2] Glycosidases cleave vitamin D glycosides to the aglycone form (free steroid form). […] This can be again extracted into chloroform phase and redissolved in ethanol and tested in the HL-60 cell differentiation assay. Using this procedure, the glycosylated and nonglycosylated forms of 25-D and 1,25-(OH)2 D of both vitamin D2 and D3 can be quantitated in HL-60 cell differentiation assay.
a. Plant Extract preparation: The plant extracts are prepared by extracting the dry plant powders with ethanol or other solvents by stirring 1 part of the plant material with 5 to 10 parts of the solvent for 3 to 18 hours at room temperature. Suitable solvents are described hereinbelow. The extracts are clarified by filtration, then dried by evaporation to obtain a dried plant extract.
b. Treatment of Dried Plant Extracts with Glycosidase: 50 mg of dried plant extract are resuspended in 4 ml citrate-phosphate buffer and incubated overnight with a glycosidase enzyme (e.g., from an almond meal extract). After incubation, the mixture is extracted with chloroform. The chloroform phase containing the nonglycosylated vitamin D compounds is dried and resuspended in ethanol at a concentration of 5 mg/ml of ethanol.
c. Hydroxylase Treatment of product of step (b) (Non-Glycosylated Vitamin D Compounds): Human keratinocytes in culture express high amounts of 25(OH) vitamin D 1-a hydroxylase activity. For converting into the 1,25-(OH)2 D, which is detected by the product of step (b) in the HL-60 assay, is treated with a keratinocyte homogenate for 1 hour at 37° C. (50 μl of the product of step b with 1 ml of cell homogenate containing 100-200 μg cell protein). After the treatment, the mixture is extracted with chloroform:methanol (1:1), the chloroform phase is dried down, resuspended in ethanol and used in the HL-60 cell differentiation assay.
d. HL-60 Cell Differentiation Assay: The differentiation of HL-60 cells can be assessed by a simple cytochemical method for the expression of non-specific esterase activity (expressed only in the differentiated monocyte/macrophage phenotype) using α-naphthyl acetate as a substrate. HL-60 cell line is obtained (e.g. from American Type Culture Collection (ATCC)) and cultures are established in the laboratory (e.g. using RPMI medium containing 20% fetal calf serum (FCS)). For incubation with the different plant extracts, cells are washed in phosphate buffered saline (PBS), then resuspended in RPMI medium containing 10% FCS and plated at a density of 750,000 cells per 1 ml in 6 well plates. The plates are then treated with either standard 1,25-(OH)2 D (0.1 to 100 nM) or the different plant extracts in ethanol, using a maximum ethanol concentration of 5 μl/ml of medium. The cells are treated for 48 hrs before processing for the esterase cytochemical assay.
Expression of nonspecific esterase in HL-60 cells is determined after mounting the cells onto slides using Cytospin. The slides are then fixed in citrateacetone-methanol for 1 min at room temperature, washed in deionized water and air dried for 20 min. The substrate solution for esterase is prepared according to the procedure provided by Sigma by adding 1 capsule of Fast Blue RR salt to 50 ml Trizma buffer (pH 7.6)and 2 ml of α-naphthyl acetate solution. The slides are incubated at 37° C. in this solution for 30 min in the dark. The slides are washed for 3 min in water, counterstained using Mayer's Hematoxylin solution air dried and viewed under microscope. The number of cells showing dark brown precipitate indicating esterase activity is counted and calculated as a percent of the total number of cells in 6 different areas of the slide (approximately 500 total cells).

keratinocyte = conditions: cited from earlier work
[1] = system: vitamin D binding protein; conditions: 25-D = 100%; cited from earlier work
[2] = system: adult human keratinocytes; experiment: cornified envelope formation of adult human keratinocytes; assay type: cell-based; conditions: Table 6; no almond meal extract, 48 hrs; 1,25-OH2 D at 1 nM
Protocol: In this method, keratinocytes were treated with the various extracts dissolved in ethanol (as described for the HL-60 assay) for 48 hrs in the presence of 5 uCi of 35S methionine included in the medium. The labelled methionine gets incorporated into the newly synthesized proteins during this 48 hr. period, including the proteins required for the formation of cornified envelopes. […] This treatment allows Ca to flow into the cells, maximally activate the enzyme transglutaminase and crosslinks all the labelled cornified envelope precursor proteins to form labelled cornified envelopes. The cells were then dissolved in 2%SDS/40 mM DTT, and the amount of insoluble cornified envelopes was quantitated by scintillation counting after separating from the soluble proteins by filtration on 0.2 micron filters.

[3] = system: Cultured Human Keratinocytes; conditions: cited from earlier work

Compound	detection (cross-reactivity) in vitamin D binding assay [1]	% differentiation (HL-60 cells; 1 nM)	% differentiation (HL-60 cells; 10 nM)	% differentiation (HL-60 cells; 100 nM)	HL-60 differentiation activity (in words) (HL-60 cells)	% differentiation (HL-60 cells; 0.1 nM)	other results
Vitamin D	0.4%	–	–	–	–	–	HL-60 differentiation activity (in words) (HL-60 cells; listed as non-hydroxylated vitamin D): inactive at all concentrations; HL-60 differentiation activity (in words) (HL-60 cells; listed as nonhydroxylated vitamin D): do not induce its differentiation; biological activity (in words) (keratinocyte; vitamin D per se): biologically inactive
C=C1CC[C@H](O)C/C1=C/C=C1\CCC[C@]2(C)[C@@H]([C@H](C)CCCC(C)(C)O)CC[C@@H]12 [25-D, 25-hydroxycholecalciferol]	100%	0%	0%	0%	inactive at all concentrations	–	HL-60 differentiation activity (in words) (HL-60 cells; listed as 25D): do not induce its differentiation
C=C1/C(=C\C=C2/CCC[C@]3(C)[C@@H]([C@H](C)CCC(O)C(C)(C)O)CC[C@@H]23)C[C@@H](O)CC1O (stereo partly drawn) [1,24,25-D(OH)3]	–	–	–	–	inactive at all concentrations	–	–
C=C1CC[C@H](O)C/C1=C/C=C1\CCC[C@]2(C)[C@@H]([C@H](C)CCC(O)C(C)(C)O)CC[C@@H]12 (stereo partly drawn) [24,25(OH)2 D]	70%	–	–	–	–	–	–
C=C1/C(=C\C=C2/CCC[C@]3(C)[C@@H]([C@H](C)CCCC(C)(C)O)CC[C@@H]23)C[C@@H](O)C[C@@H]1O [1,25-(OH)2 D, 1,25-Dihydroxyvitamin D3]	4%	50%	90%	95%	induces HL-60 cell differentiation in a dose-dependent manner; also recorded: promoted	5%	lowest concentration at which differentiation ability could be detected (HL-60 cells; HL-60, 48 hrs): 0.1 nM; EC50 (HL-60 cells; HL-60, 48 hrs, read-out: concentration for half maximal differentiation): 1 nM; cornified envelope formation, no hydrolysis [2]: 207.6 % of control
C=C1CC[C@H](O)C/C1=C/C=C1\CCC[C@]2(C)[C@@H]([C@H](C)CCCC(C)C)CC[C@@H]12 [Vitamin D3, cholecalciferol]	–	0%	0%	0%	–	0%	keratinocyte prodifferentiating activity (in words) (keratinocyte; applied topically to skin): neither has keratinocyte prodifferentiating activity; conversion in skin to 25-D (in words) [3]: nor is it converted in the skin to 25-D
